Source: publication PMC4021065, “A novel, non-radioactive eukaryotic in vitro transcription assay for sensitive quantification of RNA polymerase II activity” (BMC Molecular Biology, 2014)
Like-named read-outs stand apart in the source and are kept apart here.

How the values were obtained:
RNA polymerase II [1] = details: cited from earlier work
RNA polymerase II [2] = target: T1, RNA polymerase II (Homo sapiens, UniProt P24928); assay: In vitro transcription (HeLaScribe nuclear extract) with primer extension and PCR gel detection; type: biochemical
T1 construct: a well-defined nuclear extract providing the RNA polymerase II and a basal set of transcription factors; purchased Promega; host or cells: HeLa cell nuclear extract (endogenous enzyme)
Protocol: Transcription reactions were set up as using the Promega HeLaScribe Nuclear Extract in vitro Transcription System were set up as described by the manufacturer with some modifications. The reaction volume was doubled to 50 μl. A master mix was prepared from a volume transcription buffer (20 mM HEPES, pH 7.9, 100 mM KCl, 0.2 mM EDTA, 0.5 mM DTT, 20% glycerol) corresponding to 22 μl minus the nuclear extract volume, MgCl2 to a final concentration of 3 mM, 40 Units RNase inhibitor, DNA template (1 μg pEGFP-N1 plasmid or 150 ng linear DNA fragment CMV-EGFP, respectively) and the nuclear extract following the manufacturer’s recipe. Aliquots of the master mix were transferred into reaction tubes containing different α-amanitin concentrations or water and incubated for 20 min at room temperature. Standard transcription reactions containing no α-amanitin were referred as ‘positive’, reactions containing α-amanitin or other inhibitors as ’inhibited’. A standard reaction containing no α-amanitin/inhibitors but also no NTPs was used as a ‘negative control transcription’. […]
The purified RNA was once more DNase-treated using the Epicentre BaselineZero DNase kit as recommended by the manufacturer, 8.8 μl of the RNA being digested in a final volume of 10 μl. […] After amplification, the products were analyzed by gel electrophoresis onto 1.5% agarose.

RNA polymerase II [3] = target: T1, RNA polymerase II; assay: In vitro transcription with primer extension and qPCR (EGFP-LNA1 probe) detection, pEGFP-N1 / CMV-EGFP templates; type: biochemical
Protocol: Transcription reactions were set up as using the Promega HeLaScribe Nuclear Extract in vitro Transcription System were set up as described by the manufacturer with some modifications. The reaction volume was doubled to 50 μl. A master mix was prepared from a volume transcription buffer (20 mM HEPES, pH 7.9, 100 mM KCl, 0.2 mM EDTA, 0.5 mM DTT, 20% glycerol) corresponding to 22 μl minus the nuclear extract volume, MgCl2 to a final concentration of 3 mM, 40 Units RNase inhibitor, DNA template (1 μg pEGFP-N1 plasmid or 150 ng linear DNA fragment CMV-EGFP, respectively) and the nuclear extract following the manufacturer’s recipe. Aliquots of the master mix were transferred into reaction tubes containing different α-amanitin concentrations or water and incubated for 20 min at room temperature. Standard transcription reactions containing no α-amanitin were referred as ‘positive’, reactions containing α-amanitin or other inhibitors as ’inhibited’. A standard reaction containing no α-amanitin/inhibitors but also no NTPs was used as a ‘negative control transcription’. The reactions were started by the addition of the NTP mix to a final concentration of 400 μM each, except for the negative control where water was added. After incubating for 30 min at 30°C, the reactions were stopped by diluting with 400 μl of the RLT buffer from the Qiagen RNeasy Micro kit and stored at −80°C until proceeding with RNeasy cleanup. This was performed as recommended by the manufacturer, including on-column DNase treatment but without the addition of carrier RNA. The RNA was eluted using 15 μl water and stored at −80°C.
The purified RNA was once more DNase-treated using the Epicentre BaselineZero DNase kit as recommended by the manufacturer, 8.8 μl of the RNA being digested in a final volume of 10 μl. As a second negative control, 50 ng of the linear DNA fragment CMV-EGFP were directly DNase-digested and further processed as the RNA samples (‘DNase control’). For reverse transcription with the Qiagen Sensiscript RT kit, 2 μl of the digestion reaction and 1 μM EGFPrev1 primer (Table 1) were used in a final reaction volume of 20 μl. After reaction, 1 μl of the reverse transcription mix was transferred to PCR tubes containing 24 μl PCR mix aliquots. The standard PCR amplification was performed using the Epicentre Failsafe PCR system with the Mix A and the EGFPrev1 and EGFPfrw1 (Table 1) primer mix. Positive PCR control reactions contained 50 ng pEGFP-N1 plasmid; negative PCR controls contained no DNA. After amplification, the products were analyzed by gel electrophoresis onto 1.5% agarose.
For quantitation using SYBR detection, the Qiagen QuantiFast SYBR green qPCR kit was used. 1 μl of the reverse transcription mix was amplified in 25 μl reaction mix containing 500 nM of each EGFP-rev1 and EGFP-frw1 primer. For quantitation using the sequence-specific LNA probe EGFP-LNA1 at 250 nM, same primer set as well as an alternative primer set (EGFPfrw2 and EGFPrew2, Table 1) at 500 nM each and Sigma Jumpstart Taq ReadyMix for qPCR were used. 2 μl of the reverse transcription reaction were diluted into qPCR reactions with a final volume of 20 μl and qPCR performed in a Bio-Rad DNAEngine lightcycler. A qPCR standard curve was prepared from the CMV-EGFP DNA fragment and used for RNA copy number calculations. The amount of RNA in the inhibited probes was related to the RNA amount detected for the positive transcription reaction.

RNA polymerase II [4] = target: T1, RNA polymerase II; type: biochemical; details: for IC50: qPCR, read-out: IC50 (RNA synthesis)
RNA polymerase II [5] = target: T1, RNA polymerase II; assay: biochemical; details: for IC50: QuantiGene, read-out: IC50 (RNA synthesis)
[6] = 200 nM, template HS-DNA_mut (TATA box mutated)

Q: With `CCC(C)C1NC(=O)CNC(=O)C2Cc3c([nH]c4cc(OC)ccc34)[S+]([O-])CC(NC(=O)CNC1=O)C(=O)NC(CC(N)=O)C(=O)N1CC(O)CC1C(=O)NC(C(C)C(C)O)C(=O)N2` (stereo not shown) [6′–O-methyl-γ-amanitin] as the compound, how does the “potency as RNA polymerase II inhibitor relative to α-amanitin (less potent)” value (RNA polymerase II [1]) read?
A: about two-fold

Q: With `CC[C@H](C)[C@@H]1NC(=O)CNC(=O)[C@@H]2Cc3c([nH]c4cc(O)ccc34)[S@+]([O-])C[C@H](NC(=O)CNC1=O)C(=O)N[C@@H](CC(N)=O)C(=O)N1C[C@H](O)C[C@H]1C(=O)N[C@@H]([C@@H](C)[C@@H](O)CO)C(=O)N2` [α-amanitin] as the compound, how does the “inhibitory effect on transcription (PCR product on gel)” value (RNA polymerase II [2]; linear CMV-EGFP template, 400, 100 and 20 μM, Figure 2B) read?
A: gradually increasing inhibitory effects

Q: What about the “amount of PCR product after transcription” value (RNA polymerase II [2]; pEGFP-N1 plasmid template, 100 μM, Figure 2A) of the same compound?
A: clearly diminished amount of PCR product

Q: And the “qPCR C(T) value of inhibited transcription” value (RNA polymerase II [3]; linear CMV-EGFP template, 2 μM, uninhibited C(T) 16.1, Figure 3B)?
A: 24.5

Q: And the “qPCR C(T) value of inhibited transcription” value (RNA polymerase II [3]; linear CMV-EGFP template, 20 μM, uninhibited C(T) 16.1, Figure 3B)?
A: 28.1

Q: And the “qPCR C(T) value of inhibited transcription” value (RNA polymerase II [3]; linear CMV-EGFP template, 50 μM, uninhibited C(T) 16.1, Figure 3B)?
A: 37.0

Q: What about the “qPCR C(T) value of inhibited transcription” value (RNA polymerase II [3]; linear CMV-EGFP template, 100 μM, uninhibited C(T) 16.1, Figure 3B, C) of the same compound?
A: 27.9

Q: And the “qPCR C(T) value of inhibited transcription” value (RNA polymerase II [3]; pEGFP-N1 plasmid template, 100 μM, uninhibited C(T) 17.6 / 18.0, Figure 3A, C)?
A: 21.7

Q: What about the “inhibitory effect, short incubation vs standard (times lower)” value (RNA polymerase II [4]; 10 min, HS-DNA_long vs 30 min, standard template) of the same compound?
A: ca. 10 ×

Q: And the “inhibition of transcription efficacy” value (RNA polymerase II [5]; 200 nM, both templates (standard HS-DNA and TATA box mutant))?
A: 88 ± 1%

Q: And the “% RNA synthesis (compared to respective positive control)” value (RNA polymerase II [5]; [6])?
A: 12% ± 1%

Q: What about the “Signal (RLU average)” value (RNA polymerase II [5]; [6]) of the same compound?
A: 130255 RLU

Q: And the “% RNA synthesis (compared to respective positive control)” value (RNA polymerase II [5]; 200 nM, template HS-DNA_std)?
A: 12% ± 1%

Q: And the “Signal (RLU average)” value (RNA polymerase II [5]; 200 nM, template HS-DNA_std)?
A: 161585 RLU

Q: What about the IC50 (RNA polymerase II [5]; Bead-HS-DNA template, Figure 5C) of the same compound?
A: 5700 nM

Q: What about the IC50 (RNA polymerase II [5]; HS-DNA_long template, 10 min at 30°C, Figure 6C) of the same compound?
A: 54 nM

Q: What about the IC50 (RNA polymerase II [5]; standard HS-DNA template, 30 min at 30°C, Figure 6A) of the same compound?
A: 4 nM

Q: For `CN1CC[C@H](c2c(O)cc(O)c3c(=O)cc(-c4ccccc4Cl)oc23)[C@H](O)C1` [flavopiridol], which IC50 (RNA polymerase II [4]; HS-DNA_long template, 10 min at 30°C, second set of reactions) is on record?
A: 940 nM

Q: What about the IC50 (RNA polymerase II [4]; standard HS-DNA template, 30 min at 30°C, first set of reactions) of the same compound?
A: > 125000 nM
